# Measured values taken from US20080069776A1, “HISTOFLUORESCENT STAIN FOR ENDOSCOPY” (PENTAX CORPORATION, priority 2006, published 2008).
# What was measured:
# [1] = Absorbance and fluorescence spectra of the dye in distilled water (spectrophotometer / fluorescence spectrophotometer); format: physicochemical; conditions: for maximum absorption wavelength / maximum fluorescence wavelength / maximum excitation wavelength: 0.001 mg/mL in distilled water; for maximum absorption wavelength: absorbance measured 200 to 750 nm; for maximum fluorescence wavelength: excited at maximum absorption wavelength; for maximum fluorescence wavelength / maximum excitation wavelength: fluorescence spectrophotometer; for fluorescence in solution state: stain prepared as a solution, red wavelength region
# Method: Brilliant Green (manufactured by Sigma-Aldrich Company, B4014-25G) was adjusted with distilled water to a concentration of 0.001 mg/mL, and the light absorbance was continuously measured over a wavelength range from 200 to 750 nm using a spectrophotometer (manufactured by Shimadzu Corporation, BioSpec-1600) to determine the wavelength at which the absorption was the maximum. The maximum absorption wavelength of 625 nm thus obtained was irradiated as an excitation wavelength, and the wavelength of the scattered light detected in the perpendicular direction to the light axis of the excitation light was measured using a fluorescence spectrophotometer (manufactured by Shimadzu Corporation, RF-1500), thus to obtain a maximum fluorescence wavelength of 625 nm. The maximum excitation wavelength measured using this fluorescence spectrophotometer was 627 nm.
# This implies that the compound is not undergoing the process of excitation by an irradiated light and emission of fluorescence.
# As a comparison to Brilliant Green, the wavelength pattern of Rhodamine B, which stains the inner part of cells in the lumen of the large intestine or the like in the same manner as Brilliant Green does, was measured.
# [2] = target: T1, Albumin (from Bovine Serum, Globulin Free) (Bos taurus, UniProt P02769); test: Fluorescence spectrum of liquid mixture of Brilliant Green and albumin; format: physicochemical
# T1 construct: Albumin (from Bovine Serum, Globulin Free); purchased Wako Pure Chemical Industries, Ltd. 013-15104; host or cells: bovine serum
# Method: Brilliant Green (manufactured by Sigma-Aldrich Company, B4014-25G) was prepared as a solution at 0.1 mg/mL using distilled water. Albumin (from Bovine Serum, Globulin Free; Wako Pure Chemical Industries, Ltd., 013-15104) was prepared as a solution at 2.0 mg/mL using physiological saline. Using a 0.1 M phosphate buffer solution (pH 5) and the 2.0 mg/mL albumin solution prepared above, a liquid mixture of 0.01 mg/mL Brilliant Green and albumin was prepared. The maximum absorption wavelength of Brilliant Green of 625 nm was irradiated as the excitation wavelength, and the wavelength of the scattered light detected in the perpendicular direction to the light axis of the excitation light, was measured using a spectrophotometer (manufactured by Shimadzu Corporation, RF-1500). The maximum fluorescence wavelength was 651 nm.
# As a comparison to the liquid mixture of Brilliant Green and albumin, the maximum fluorescence wavelength of an albumin solution was measured with respect to an excitation wavelength of 625 nm, which was shown in FIG. 4.
# large intestine = test: Fluorescence observation of extracted large intestine stained with the dye, confocal microscope; design: species or system mouse
# Method: Brilliant Green (manufactured by Sigma-Aldrich Company, B4014-25G) was prepared as a solution using distilled water, and the concentration was adjusted to 1.0 mg/mL.
# A mouse (ddY, 13 weeks old, male) was subjected to laparotomy under anesthesia, and the large intestine was extracted. Immediately after extraction, the prepared solution of Brilliant Green was applied onto the large intestine, and fluorescence observation of the specimen by a confocal imaging system using a confocal microscope (manufactured by Leica Corp., TCPSP2) was performed. Here, the stainability, penetrability, and fluorescence properties of Brilliant Green were examined.
# Observation was performed for the cross-sections at every 5 μm from the luminal surface layer of the flesh specimen of extracted large intestine, to the depth direction (FIG. 5).
# T1 sequence (P02769 25-607): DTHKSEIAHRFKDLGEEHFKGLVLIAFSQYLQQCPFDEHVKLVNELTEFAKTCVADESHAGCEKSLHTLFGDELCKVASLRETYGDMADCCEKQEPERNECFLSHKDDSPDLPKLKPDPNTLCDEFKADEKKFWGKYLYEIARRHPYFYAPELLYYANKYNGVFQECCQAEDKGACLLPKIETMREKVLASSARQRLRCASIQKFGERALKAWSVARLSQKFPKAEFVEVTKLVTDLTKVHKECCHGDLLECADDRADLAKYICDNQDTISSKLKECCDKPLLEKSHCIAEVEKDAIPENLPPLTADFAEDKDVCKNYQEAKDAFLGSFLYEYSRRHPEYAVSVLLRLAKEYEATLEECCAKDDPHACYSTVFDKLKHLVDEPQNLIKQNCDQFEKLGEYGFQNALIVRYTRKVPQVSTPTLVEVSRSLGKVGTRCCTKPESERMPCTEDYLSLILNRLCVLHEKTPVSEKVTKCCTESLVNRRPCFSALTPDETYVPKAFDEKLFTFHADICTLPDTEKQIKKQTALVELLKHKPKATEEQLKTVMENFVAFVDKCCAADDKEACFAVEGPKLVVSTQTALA
Compound,maximum absorption wavelength [1] [nm],maximum fluorescence wavelength [1] [nm],maximum excitation wavelength [1] [nm],"maximum fluorescence wavelength ([2]; 0.01 mg/mL Brilliant Green with albumin, 0.1 M phosphate buffer pH 5, excitation 625 nm) [nm]",fluorescence when bound to albumin ([2]; light source in the red wavelength region),"depth to which observation could be sufficiently made from the luminal surface layer (large intestine; 1.0 mg/mL solution applied onto extracted mouse large intestine, cross-sections every 5 μm) [μm]","stainability of the tissue (cross-sectional images) (large intestine; 1.0 mg/mL, sites 10 μm and 15 μm deep from the surface layer)",fluorescence in solution state [1]
"CCN(Cc1cccc(S(=O)(=O)[O-])c1)c1ccc(C(=C2C=CC(=[N+](CC)Cc3cccc(S(=O)(=O)[O-])c3)C=C2)c2ccccc2S(=O)(=O)[O-])cc1.[Na+].[Na+] [Brilliant Blue FCF, reference compound]",629,650,619,,,,,
CCN(CC)c1ccc(C(=C2C=CC(=[N+](CC)CC)C=C2)c2ccccc2)cc1.O=S(=O)([O-])O [Brilliant Green],625,625,627,651,"emits fluorescence, when bound to albumin",35,"The cytoplasm is well stained, while the interstitial space is contrastively dark",no fluorescence was detected
"CCN(CC)c1ccc2c(-c3ccccc3C(=O)O)c3ccc(=[N+](CC)CC)cc-3oc2c1.[Cl-] [Rhodamine B, reference compound]",,,,,,,,exhibits intense fluorescence even in a solution state
